# Values of other authors as cited in paper PMC8801796 (Reproductive Toxicology (Elmsford, N.y.), 2022).
# Like-named read-outs stand apart in the source and are kept apart here.
# Columns and labels:
# [1] = tested on: monkeys, mice, rats, and rabbits; conditions: cited from earlier work
# [2] = tested on: rats, rabbits, and guinea pigs; conditions: cited from earlier work
# [3] = tested on: rats; conditions: cited from earlier work
# [4] = tested on: bacterial reverse mutation; conditions: in vitro; cited from earlier work
# [5] = tested on: hypoxanthine phosphoribosyltransferase (HPRT) gene; conditions: mammalian cell; cited from earlier work
# [6] = tested on: Big Blue® (cII Locus) transgenic rodent; conditions: cited from earlier work
# [7] = tested on: rabbits; conditions: cited from earlier work
# [8] = tested on: rats; conditions: rat PPND, maternal dosing GD 6 to postpartum day 20; cited from earlier work
smiles,measurement,setting,value
"NC(=O)c1nc(F)c[nH]c1=O [FAV, favipiravir]",Teratogenicity,[1],teratogenesis has been reported
"NC(=O)c1ncn([C@@H]2O[C@H](CO)[C@@H](O)[C@H]2O)n1 [RBV, ribavirin]",Teratogenicity,[2],embryocidal and/or teratogenic
CC(C)C(=O)OC[C@H]1O[C@@H](n2ccc(NO)nc2=O)[C@H](O)[C@@H]1O [molnupiravir],Developmental toxicity,"[3]; rats, 250 mg/kg/day",no developmental toxicity
same,Developmental toxicity,"[3]; rats, 500 mg/kg/day, in the presence of decreased maternal body weight gain",lower fetal body weights and delayed ossification
same,Developmental toxicity,"[3]; rats, 1000 mg/kg/day (highest dose)",severe manifestations of developmental toxicity (malformations and embryo-fetal lethality)
same,Ames assay result,[4],positive
same,HPRT gene mutation assay result,[5],positive
same,Big Blue transgenic rodent mutagenesis assay result,[6],negative
same,Developmental toxicity,"[7]; rabbits, 400 mg/kg/day",no developmental toxicity
same,Developmental toxicity,"[7]; rabbits, 750 mg/kg/day, in the presence of slight maternal toxicity",lower fetal body weights
CCC(CC)COC(=O)[C@H](C)N[P@](=O)(OC[C@H]1O[C@@](C#N)(c2ccc3c(N)ncnn23)[C@H](O)[C@@H]1O)Oc1ccccc1 [remdesivir],Effects on embryo-fetal development,"[3]; rats, up the highest dose tested, 20 mg/kg/day",no adverse effects on embryo-fetal development
same,Effects on embryo-fetal development,"[7]; rabbits, up the highest dose tested, 20 mg/kg/day",no adverse effects on embryo-fetal development
CC(C)c1nc(CN(C)C(=O)N[C@H](C(=O)N[C@@H](Cc2ccccc2)C[C@H](O)[C@H](Cc2ccccc2)NC(=O)OCc2cncs2)C(C)C)cs1 [ritonavir],Cryptorchidism in rat EFD study,[3]; mid (35 mg/kg/day) and high (75 mg/kg/day) doses,cryptorchidism was reported
same,Fetal malformations,"[3]; rat EFD, doses of 15, 35, and 75 mg/kg",no evidence of fetal malformations
same,Developmental toxicity findings in EFD studies,"[3]; rats and/or rabbits, only at the highest dose evaluated in each species, maternally toxic doses","higher resorptions, lower fetal body weight, ossification delays, and increased skeletal variations"
same,Cryptorchidism in postnatal developing rats,[8],no reports of cryptorchidism
same,Fetal malformations,"[7]; rabbit EFD, doses of 25, 50, and 110 mg/kg/day",no evidence of fetal malformations
